Each structure is given as a SMILES string.

One data set in a line: Oral bioavailability in human. The following applies: in vivo.
The compound `C[C@H](NC(C)(C)C)C(=O)c1cccc(Cl)c1` returned a bioavailability of 70%. Consider `CN1CCN(C(=O)O[C@@H]2c3nccnc3C(=O)N2c2ccc(Cl)cn2)CC1`, for which the bioavailability was 80%. Compound `C[C@@H](N)Cc1cccc(C(F)(F)F)c1` displayed a bioavailability of 85%. As for `N[C@H](Cc1ccc(N(CCCl)CCCl)cc1)C(=O)O`, the bioavailability amounted to 71%. Same read-out and setting: in the case of `C[C@@H](NC(C)(C)C)C(=O)c1cccc(Cl)c1` it was 70%. Turning to `COc1ccc([C@H](CN(C)C)C2(O)CCCCC2)cc1`, the bioavailability amounted to 45%.

For the compound `O=C(O)[C@H]1N=C(c2ccccc2)c2cc(Cl)ccc2NC1=O`, the bioavailability was 91%.

With `CCN(CC)C(=O)[C@]1(c2ccccc2)C[C@@H]1CN`, the bioavailability was 84%. As for `O=C(O)[C@@H]1N=C(c2ccccc2)c2cc(Cl)ccc2NC1=O`, the bioavailability was found to be 91%.

In turn, `NS(=O)(=O)c1cc([C@@]2(O)NC(=O)c3ccccc32)ccc1Cl` gave a bioavailability of 64%. In turn, `N[C@@H](Cc1ccc(N(CCCl)CCCl)cc1)C(=O)O` yielded a bioavailability of 71%. `CC(C)=CCN1CC[C@]2(C)c3cc(O)ccc3C[C@H]1[C@H]2C` [(+)-PENTAZOCINE] had a bioavailability of 18%. `NS(=O)(=O)c1cc([C@]2(O)NC(=O)c3ccccc32)ccc1Cl` [(R)-CHLORTHALIDONE]: the bioavailability turned out to be 64%. `CN(C)CCC[C@]1(c2ccc(F)cc2)OCc2cc(C#N)ccc21` [(R)-CITALOPRAM] came in with a bioavailability of 80%. For `COc1c(N2CCN[C@H](C)C2)c(F)cc2c(=O)c(C(=O)O)cn(C3CC3)c12` [(R)-GATIFLOXACIN], the bioavailability turned out to be 96%. `O=C1Nc2ccc(Cl)cc2C(c2ccccc2Cl)=N[C@@H]1O` [(R)-LORAZEPAM] registered a bioavailability of 93%.

Regarding `CN1C(=O)[C@@H](O)N=C(c2ccccc2Cl)c2cc(Cl)ccc21` [(R)-LORMETAZEPAM], the bioavailability turned out to be 75%.

`CC[C@@]1(c2ccccc2)C(=O)NC(=O)N(C)C1=O` [(R)-METHYLPHENOBARBITAL] had a bioavailability of 73%.

The data set is the same for the next values; noted with them: in vivo, F.
For the compound `CCOc1nc2cccc(C(=O)O)c2n1Cc1ccc(-c2ccccc2-c2nnn[nH]2)cc1`, the bioavailability stood at 15%. In the case of `COc1ccc(CCN(C)CCCC2(c3ccc(OC)c(OC)c3)S(=O)(=O)CCCS2(=O)=O)cc1OC`, the bioavailability is 22%. In turn, `CNS(=O)(=O)CCc1ccc2[nH]cc(C3CCN(C)CC3)c2c1` came in with a bioavailability of 67.5%.

As for `CN1CCC[C@@H]1Cc1c[nH]c2ccc(CCS(=O)(=O)c3ccccc3)cc12`, the bioavailability came out at 62.5%. The compound `CCCc1nc(C)c2c(=O)[nH]c(-c3cc(S(=O)(=O)N4CCN(CC)CC4)ccc3OCC)nn12` displayed a bioavailability of 15%. For the compound `CCCc1nn(C)c2c(=O)[nH]c(-c3cc(S(=O)(=O)N4CCN(C)CC4)ccc3OCC)nc12`, the bioavailability worked out at 40%. For `COc1cc(N[C@@H](C)CCCN)c2ncccc2c1`, the bioavailability was determined as 96%.

For `CCN(CC)CCC[C@H](C)Nc1ccnc2cc(Cl)ccc12`, the bioavailability was found to be 80%. `CC(C)COC[C@H](CN(Cc1ccccc1)c1ccccc1)N1CCCC1` returned a bioavailability of 60%.

Turning to `O=C(NC[C@@H]1CCCCN1)c1cc(OCC(F)(F)F)ccc1OCC(F)(F)F`, the bioavailability came to 95%.

In turn, `C[C@H](N/C(=N/c1ccncc1)NC#N)C(C)(C)C` displayed a bioavailability of 57%. In the case of `COc1cc(N[C@H](C)CCCN)c2ncccc2c1`, the bioavailability is 96%. As for `CC(C)NC[C@H](O)c1ccc(NS(C)(=O)=O)cc1`, the bioavailability turned out to be 60%.

With `CN1CCN2c3ccccc3Cc3ccccc3[C@H]2C1`, the bioavailability worked out at 20%. Still for that read-out and setting: to `CC(C)NC[C@@H](O)COc1ccc(OCCOCC2CC2)cc1` belongs 100%; to `C[C@@H](CN1CCN(CCOCCO)CC1)CN1c2ccccc2Sc2ccccc21`, 10%. Still for that read-out and setting: to `COc1ccc(CCN(C)CCC[C@@](C#N)(c2ccc(OC)c(OC)c2)C(C)C)cc1OC` belongs 13.5%; to `C[C@@H](N/C(=N/c1ccncc1)NC#N)C(C)(C)C`, 57%; to `C[C@H](CN1CCN(CCOCCO)CC1)CN1c2ccccc2Sc2ccccc21`, 10%. The compound `CO/N=C1\CN(c2nc3c(cc2F)c(=O)c(C(=O)O)cn3C2CC2)C[C@@H]1CN` displayed a bioavailability of 71%. On the same count and under the same terms, in the case of `CC(C)NC[C@H](O)COc1ccc(OCCOCC2CC2)cc1` it was 100%; in that of `CC1=CC[C@H](C(C)(C)O)C[C@H]1O`, 72%. On the same count and under the same terms, in the case of `CC(C)COC[C@@H](CN(Cc1ccccc1)c1ccccc1)N1CCCC1` it was 60%; in that of `CN1Cc2c(N)cccc2[C@@H](c2ccccc2)C1`, 27%; in that of `CN1Cc2c(N)cccc2[C@H](c2ccccc2)C1`, 27%. As for `Nc1nc(N)c2nc(-c3ccccc3)c(N)nc2n1`, the bioavailability came to 51%. As for `CCOC(=O)C(CCc1ccccc1)N[C@@H](C)C(=O)N1CCC[C@H]1C(=O)O` (single isomer, unassigned), the bioavailability turned out to be 41%. In turn, `Nc1nc(NC2CC2)c2ncn([C@H]3C=C[C@@H](CO)C3)c2n1` (single isomer, unassigned) [ABACAVIR] registered a bioavailability of 86%.

The compound `C[C@@H](OC1OCCN(Cc2n[nH]c(=O)[nH]2)C1c1ccc(F)cc1)c1cc(C(F)(F)F)cc(C(F)(F)F)c1` (single isomer, unassigned) [APREPITANT] displayed a bioavailability of 62.5%. Same read-out and setting: in the case of `C=C1/C(=C\C=C2/CCC[C@]3(C)[C@@H](C(C)CCCC(C)(C)O)CC[C@@H]23)C[C@@H](O)C[C@@H]1O` (single isomer, unassigned) [CALCITRIOL] it was 61%; in that of `CCCNC1CCc2nc(N)sc2C1` (single isomer, unassigned) [PRAMIPEXOLE], 90%; in that of `Cc1ccsc1C(=CCCN1CCCC(C(=O)O)C1)c1sccc1C` (single isomer, unassigned) [TIAGABINE], 90%. On to `CCc1cccc2cc([C@H](O)CNC(C)(C)C)oc12` [(R)-BUFURALOL], for which the bioavailability was determined as 46%. Take `CCN(CC)CCC[C@@H](C)Nc1ccnc2cc(Cl)ccc12` [(R)-CHLOROQUINE]: the bioavailability turned out to be 80%. As to `CCN1C[C@H](CCN2CCOCC2)C(c2ccccc2)(c2ccccc2)C1=O` [(R)-DOXAPRAM], the bioavailability came out at 61%. The compound `CCOC(=O)C1=C(C)NC(C)=C(C(=O)OC)[C@H]1c1cccc(Cl)c1Cl` [(R)-FELODIPINE] returned a bioavailability of 15%. The compound `CC(C)Cc1ccc([C@@H](C)C(=O)O)cc1` [(R)-IBUPROPHEN] displayed a bioavailability of 80%. Consider `COC(=O)C1=C(C)NC(C)=C(C(=O)OC(C)C)[C@@H]1c1cccc2nonc12` [(R)-ISRADIPINE], for which the bioavailability was determined as 19.5%. In turn, `Cc1cc2c(OC[C@H](O)CNC(C)C)cccc2[nH]1` [(R)-MEPINDOLOL] registered a bioavailability of 82%. `Cc1cccc(C)c1OC[C@@H](C)N` [(R)-MEXILETINE]: the bioavailability turned out to be 87%.

Compound `COc1ccc(OC)c([C@@H](O)CNC(=O)CN)c1` [(R)-MIDODRINE] displayed a bioavailability of 93%. Take `CCOC(=O)C1=C(C)NC(C)=C(C(=O)OC)[C@H]1c1cccc([N+](=O)[O-])c1` [(R)-NITRENDIPINE]: the bioavailability came to 16%. The compound `Cc1nccn1C[C@H]1CCc2c(c3ccccc3n2C)C1=O` [(R)-ONDANSETRON] registered a bioavailability of 62%.

Values taken from ChEMBL document CHEMBL1141299, “Hologram QSAR model for the prediction of human oral bioavailability” (Bioorg Med Chem, 2007).
